According to patent US9493426B2, “Quinazolinone derivatives useful as FGFR kinase modulators” (priority 2013, dated 2016):

Target: T1, VEGFR2 (Homo sapiens, UniProt P35968)
T1 construct: purchased DiscoveRx Corporation
Assay: Enzyme binding assay (KINOMEscan) VEGFR2
Conditions: pKd = -log Kd (M), read-out: VEGFR2_pKd (converted)
Experimental: (§1) Enzyme Binding Assays (KINOMEscan®)
(§2) Kinase enzyme binding affinities of compounds disclosed herein were determined using the KINOMEscan® technology performed by DiscoveRx Corporation, San Diego, Calif., USA (www.kinomescan.com).

T1 sequence (P35968 20-1356): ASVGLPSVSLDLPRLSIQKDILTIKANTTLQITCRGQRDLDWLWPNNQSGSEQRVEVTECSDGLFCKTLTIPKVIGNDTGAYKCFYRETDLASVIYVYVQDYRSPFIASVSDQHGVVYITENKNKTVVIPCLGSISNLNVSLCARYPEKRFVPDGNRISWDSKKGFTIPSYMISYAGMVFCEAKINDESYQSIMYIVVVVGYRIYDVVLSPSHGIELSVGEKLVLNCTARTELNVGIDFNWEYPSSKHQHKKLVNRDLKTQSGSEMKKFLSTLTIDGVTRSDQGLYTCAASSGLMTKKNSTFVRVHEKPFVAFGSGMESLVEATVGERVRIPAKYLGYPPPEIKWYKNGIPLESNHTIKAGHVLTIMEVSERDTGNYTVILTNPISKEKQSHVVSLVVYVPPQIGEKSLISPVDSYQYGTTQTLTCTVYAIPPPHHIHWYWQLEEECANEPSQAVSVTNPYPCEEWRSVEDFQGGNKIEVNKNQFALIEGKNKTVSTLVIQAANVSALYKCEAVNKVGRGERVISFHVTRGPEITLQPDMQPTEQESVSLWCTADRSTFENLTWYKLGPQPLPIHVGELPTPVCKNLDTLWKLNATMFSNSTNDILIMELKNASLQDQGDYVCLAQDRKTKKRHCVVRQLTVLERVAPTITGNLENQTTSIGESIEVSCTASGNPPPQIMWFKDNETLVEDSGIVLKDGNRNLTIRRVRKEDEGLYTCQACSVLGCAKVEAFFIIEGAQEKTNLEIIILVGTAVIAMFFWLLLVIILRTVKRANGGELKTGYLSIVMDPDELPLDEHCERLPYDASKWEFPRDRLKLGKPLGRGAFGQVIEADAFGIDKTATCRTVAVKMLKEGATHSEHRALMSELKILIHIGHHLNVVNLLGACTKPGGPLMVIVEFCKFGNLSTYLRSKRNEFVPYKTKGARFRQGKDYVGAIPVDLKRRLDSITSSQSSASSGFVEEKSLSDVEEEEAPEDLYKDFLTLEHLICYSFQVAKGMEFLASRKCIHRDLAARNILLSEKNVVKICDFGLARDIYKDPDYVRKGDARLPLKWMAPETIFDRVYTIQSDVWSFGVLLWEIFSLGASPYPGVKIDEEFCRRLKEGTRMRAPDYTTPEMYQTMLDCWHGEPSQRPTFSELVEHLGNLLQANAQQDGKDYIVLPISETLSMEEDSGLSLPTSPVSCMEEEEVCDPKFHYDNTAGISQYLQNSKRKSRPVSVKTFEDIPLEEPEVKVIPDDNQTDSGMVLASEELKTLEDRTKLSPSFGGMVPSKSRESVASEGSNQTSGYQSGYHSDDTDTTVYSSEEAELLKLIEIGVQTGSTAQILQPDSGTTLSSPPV

SMILES	Kd
COc1cc(OC)cc(N(CCCNC(C)C)c2ccc3ncn(C4CCOCC4)c(=O)c3c2)c1 [Compound 73]	> 3.16e-06 M
COc1cc(OC)cc(N(CCNC(C)C)c2ccc3ncn(-c4cccnc4)c(=O)c3c2)c1 [Compound 34]	> 3.16e-06 M
COc1cc(OC)c(F)c(N(CCO)c2ccc3ncn(-c4ccncc4)c(=O)c3c2)c1 [Compound 38]	> 3.16e-06 M
COc1cc(OC)c(F)c(N(CCO)c2ccc3ncn(-c4cncnc4)c(=O)c3c2)c1F [Compound 76]	> 3.16e-06 M
COc1cc(OC)c(F)c(N(CCO)c2ccc3ncn(-c4cccnc4)c(=O)c3c2)c1 [Compound 30]	> 3.16e-06 M
COc1cc(OC)c(F)c(N(Cc2ncc[nH]2)c2ccc3ncn(C4CCNCC4)c(=O)c3c2)c1 [Compound 45]	> 3.16e-06 M
COc1cc(OC)c(F)c(N(Cc2ncc[nH]2)c2ccc3ncn(C4CCNCC4)c(=O)c3c2)c1F [Compound 43]	> 3.16e-06 M
CNCCN(c1ccc2ncn(C3CCNCC3)c(=O)c2c1)c1cc(OC)cc(OC)c1F [Compound 58]	> 3.16e-06 M
COc1cc(OC)cc(/C(=C\C#N)c2ccc3ncn(-c4cnn(C)c4)c(=O)c3c2)c1 [Compound 49]	> 3.16e-06 M
COc1cc(OC)c(F)c(N(Cc2nccn2S(=O)(=O)N(C)C)c2ccc3ncn(C4CCOCC4)c(=O)c3c2)c1 [Compound 67]	> 3.16e-06 M
COc1cc(OC)c(F)c(N(CCNC(C)C)c2ccc3ncn(-c4cccnc4)c(=O)c3c2)c1 [Compound 33]	1.58e-06 M
COc1cc(OC)c(F)c(N(CCO)c2ccc3ncn(-c4cccnc4)c(=O)c3c2)c1F [Compound 29]	6.31e-07 M
COc1cc(OC)c(F)c(N(CCO)c2ccc3ncn(C4CCNCC4)c(=O)c3c2)c1 [Compound 48]	> 3.16e-06 M

Target: T2, FGFR2 (Homo sapiens, UniProt P21802)
T2 construct: purchased DiscoveRx Corporation
Assay: Enzyme binding assay (KINOMEscan) FGFR2
Conditions: pKd = -log Kd (M), read-out: FGFR2_pKd (converted)
Experimental: as §1, §2

T2 sequence (P21802 22-821): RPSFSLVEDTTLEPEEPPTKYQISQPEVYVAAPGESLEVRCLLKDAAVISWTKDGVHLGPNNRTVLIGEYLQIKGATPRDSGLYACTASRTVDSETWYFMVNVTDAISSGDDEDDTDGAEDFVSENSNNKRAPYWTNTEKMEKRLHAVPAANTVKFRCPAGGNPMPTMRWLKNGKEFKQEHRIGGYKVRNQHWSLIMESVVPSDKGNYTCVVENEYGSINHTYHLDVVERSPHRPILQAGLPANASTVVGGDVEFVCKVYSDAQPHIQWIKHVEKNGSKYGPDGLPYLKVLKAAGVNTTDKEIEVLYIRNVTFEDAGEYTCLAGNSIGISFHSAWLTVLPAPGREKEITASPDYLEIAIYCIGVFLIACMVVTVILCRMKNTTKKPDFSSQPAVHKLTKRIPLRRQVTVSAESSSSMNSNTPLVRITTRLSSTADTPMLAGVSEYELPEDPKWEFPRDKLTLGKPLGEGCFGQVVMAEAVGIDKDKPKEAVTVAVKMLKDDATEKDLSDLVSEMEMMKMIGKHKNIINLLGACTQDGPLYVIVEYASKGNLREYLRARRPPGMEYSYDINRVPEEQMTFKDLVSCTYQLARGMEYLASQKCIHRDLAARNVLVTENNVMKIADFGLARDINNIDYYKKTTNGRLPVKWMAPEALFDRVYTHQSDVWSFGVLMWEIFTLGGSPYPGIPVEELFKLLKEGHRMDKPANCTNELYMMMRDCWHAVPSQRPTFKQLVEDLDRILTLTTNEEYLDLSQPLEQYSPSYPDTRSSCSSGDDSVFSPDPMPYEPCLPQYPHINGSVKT

SMILES	Kd
COc1cc(OC)cc(N(CCCNC(C)C)c2ccc3ncn(C4CCOCC4)c(=O)c3c2)c1 [Compound 73]	5.01e-08 M
COc1cc(OC)cc(N(CCNC(C)C)c2ccc3ncn(-c4cccnc4)c(=O)c3c2)c1 [Compound 34]	5.01e-08 M
COc1cc(OC)c(F)c(N(CCO)c2ccc3ncn(-c4ccncc4)c(=O)c3c2)c1 [Compound 38]	2e-08 M
COc1cc(OC)c(F)c(N(CCO)c2ccc3ncn(-c4cncnc4)c(=O)c3c2)c1F [Compound 76]	1.58e-08 M
COc1cc(OC)c(F)c(N(CCO)c2ccc3ncn(-c4cccnc4)c(=O)c3c2)c1 [Compound 30]	3.98e-08 M
COc1cc(OC)c(F)c(N(Cc2ncc[nH]2)c2ccc3ncn(C4CCNCC4)c(=O)c3c2)c1 [Compound 45]	3.16e-08 M
COc1cc(OC)c(F)c(N(Cc2ncc[nH]2)c2ccc3ncn(C4CCNCC4)c(=O)c3c2)c1F [Compound 43]	7.94e-09 M
CNCCN(c1ccc2ncn(C3CCNCC3)c(=O)c2c1)c1cc(OC)cc(OC)c1F [Compound 58]	3.98e-07 M
COc1cc(OC)cc(/C(=C\C#N)c2ccc3ncn(-c4cnn(C)c4)c(=O)c3c2)c1 [Compound 49]	3.98e-07 M
COc1cc(OC)c(F)c(N(Cc2nccn2S(=O)(=O)N(C)C)c2ccc3ncn(C4CCOCC4)c(=O)c3c2)c1 [Compound 67]	2.51e-07 M
COc1cc(OC)c(F)c(N(CCNC(C)C)c2ccc3ncn(-c4cccnc4)c(=O)c3c2)c1 [Compound 33]	1.58e-08 M
COc1cc(OC)c(F)c(N(CCO)c2ccc3ncn(-c4cccnc4)c(=O)c3c2)c1F [Compound 29]	3.16e-09 M
COc1cc(OC)c(F)c(N(CCO)c2ccc3ncn(C4CCNCC4)c(=O)c3c2)c1 [Compound 48]	6.31e-07 M

System: not given
Assay: not given
Conditions: not given

SMILES	melting point
COc1cc(OC)cc(N(CCCNC(C)C)c2ccc3ncn(C4CCOCC4)c(=O)c3c2)c1 [Compound 73]	240 °C
COc1cc(OC)cc(N(CCNC(C)C)c2ccc3ncn(-c4cccnc4)c(=O)c3c2)c1 [Compound 34]	136 °C
COc1cc(OC)c(F)c(N(CCO)c2ccc3ncn(-c4ccncc4)c(=O)c3c2)c1 [Compound 38]	209 °C
COc1cc(OC)c(F)c(N(CCO)c2ccc3ncn(-c4cncnc4)c(=O)c3c2)c1F [Compound 76]	178 °C
COc1cc(OC)c(F)c(N(CCO)c2ccc3ncn(-c4cccnc4)c(=O)c3c2)c1 [Compound 30]	186 °C
COc1cc(OC)c(F)c(N(Cc2ncc[nH]2)c2ccc3ncn(C4CCNCC4)c(=O)c3c2)c1 [Compound 45]	260 °C
COc1cc(OC)c(F)c(N(Cc2ncc[nH]2)c2ccc3ncn(C4CCNCC4)c(=O)c3c2)c1F [Compound 43]	223 °C
CNCCN(c1ccc2ncn(C3CCNCC3)c(=O)c2c1)c1cc(OC)cc(OC)c1F [Compound 58]	176 °C
COc1cc(OC)cc(/C(=C\C#N)c2ccc3ncn(-c4cnn(C)c4)c(=O)c3c2)c1 [Compound 49]	217 °C
COc1cc(OC)c(F)c(N(Cc2nccn2S(=O)(=O)N(C)C)c2ccc3ncn(C4CCOCC4)c(=O)c3c2)c1 [Compound 67]	189 °C
COc1cc(OC)c(F)c(N(CCNC(C)C)c2ccc3ncn(-c4cccnc4)c(=O)c3c2)c1 [Compound 33]	133 °C
COc1cc(OC)c(F)c(N(CCO)c2ccc3ncn(-c4cccnc4)c(=O)c3c2)c1F [Compound 29]	112 °C
COc1cc(OC)c(F)c(N(CCO)c2ccc3ncn(C4CCNCC4)c(=O)c3c2)c1 [Compound 48]	173 °C

Target: T3, FGFR1 (Homo sapiens, UniProt P11362)
T3 construct: purchased DiscoveRx Corporation
Assay: Enzyme binding assay (KINOMEscan) FGFR1
Conditions: FGFR1_pKd, pKd = -log Kd (M)
Experimental: as §1, §2

T3 sequence (P11362 22-822): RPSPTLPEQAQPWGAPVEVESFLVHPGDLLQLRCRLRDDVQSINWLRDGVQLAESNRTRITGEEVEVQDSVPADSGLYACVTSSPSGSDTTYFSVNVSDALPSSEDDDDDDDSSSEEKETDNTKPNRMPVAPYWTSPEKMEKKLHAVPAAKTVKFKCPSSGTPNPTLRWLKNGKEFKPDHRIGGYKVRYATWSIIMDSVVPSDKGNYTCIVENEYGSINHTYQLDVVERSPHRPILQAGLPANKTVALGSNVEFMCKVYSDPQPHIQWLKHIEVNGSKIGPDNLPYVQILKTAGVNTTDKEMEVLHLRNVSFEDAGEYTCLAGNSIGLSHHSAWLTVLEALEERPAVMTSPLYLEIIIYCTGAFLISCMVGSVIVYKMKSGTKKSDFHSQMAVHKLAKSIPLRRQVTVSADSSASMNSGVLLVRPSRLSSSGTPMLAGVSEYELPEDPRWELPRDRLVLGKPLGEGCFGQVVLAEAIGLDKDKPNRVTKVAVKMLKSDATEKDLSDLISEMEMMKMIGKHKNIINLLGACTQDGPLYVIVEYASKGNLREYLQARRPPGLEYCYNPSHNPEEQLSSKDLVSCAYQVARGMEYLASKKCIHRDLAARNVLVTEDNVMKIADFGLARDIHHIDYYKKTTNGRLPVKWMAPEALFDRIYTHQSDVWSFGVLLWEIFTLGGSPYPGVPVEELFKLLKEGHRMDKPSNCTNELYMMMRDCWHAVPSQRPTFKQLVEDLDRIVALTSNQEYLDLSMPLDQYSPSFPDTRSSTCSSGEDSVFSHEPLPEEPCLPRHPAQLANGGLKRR

SMILES	Kd
COc1cc(OC)cc(N(CCCNC(C)C)c2ccc3ncn(C4CCOCC4)c(=O)c3c2)c1 [Compound 73]	6.31e-08 M
COc1cc(OC)cc(N(CCNC(C)C)c2ccc3ncn(-c4cccnc4)c(=O)c3c2)c1 [Compound 34]	6.31e-08 M
COc1cc(OC)c(F)c(N(CCO)c2ccc3ncn(-c4ccncc4)c(=O)c3c2)c1 [Compound 38]	1e-07 M
COc1cc(OC)c(F)c(N(CCO)c2ccc3ncn(-c4cncnc4)c(=O)c3c2)c1F [Compound 76]	6.31e-08 M
COc1cc(OC)c(F)c(N(CCO)c2ccc3ncn(-c4cccnc4)c(=O)c3c2)c1 [Compound 30]	2.51e-07 M
COc1cc(OC)c(F)c(N(Cc2ncc[nH]2)c2ccc3ncn(C4CCNCC4)c(=O)c3c2)c1 [Compound 45]	7.94e-08 M
COc1cc(OC)c(F)c(N(Cc2ncc[nH]2)c2ccc3ncn(C4CCNCC4)c(=O)c3c2)c1F [Compound 43]	1.58e-08 M
CNCCN(c1ccc2ncn(C3CCNCC3)c(=O)c2c1)c1cc(OC)cc(OC)c1F [Compound 58]	3.16e-07 M
COc1cc(OC)cc(/C(=C\C#N)c2ccc3ncn(-c4cnn(C)c4)c(=O)c3c2)c1 [Compound 49]	2e-06 M
COc1cc(OC)c(F)c(N(Cc2nccn2S(=O)(=O)N(C)C)c2ccc3ncn(C4CCOCC4)c(=O)c3c2)c1 [Compound 67]	3.16e-07 M
COc1cc(OC)c(F)c(N(CCNC(C)C)c2ccc3ncn(-c4cccnc4)c(=O)c3c2)c1 [Compound 33]	5.01e-09 M
COc1cc(OC)c(F)c(N(CCO)c2ccc3ncn(-c4cccnc4)c(=O)c3c2)c1F [Compound 29]	1.58e-08 M
COc1cc(OC)c(F)c(N(CCO)c2ccc3ncn(C4CCNCC4)c(=O)c3c2)c1 [Compound 48]	1.26e-06 M

Target: T4, FGFR3 (Homo sapiens, UniProt P22607)
T4 construct: purchased DiscoveRx Corporation
Assay: Enzyme binding assay (KINOMEscan) FGFR3
Conditions: pKd = -log Kd (M), read-out: FGFR3_pKd (converted)
Experimental: as §1, §2

T4 sequence (P22607 23-806): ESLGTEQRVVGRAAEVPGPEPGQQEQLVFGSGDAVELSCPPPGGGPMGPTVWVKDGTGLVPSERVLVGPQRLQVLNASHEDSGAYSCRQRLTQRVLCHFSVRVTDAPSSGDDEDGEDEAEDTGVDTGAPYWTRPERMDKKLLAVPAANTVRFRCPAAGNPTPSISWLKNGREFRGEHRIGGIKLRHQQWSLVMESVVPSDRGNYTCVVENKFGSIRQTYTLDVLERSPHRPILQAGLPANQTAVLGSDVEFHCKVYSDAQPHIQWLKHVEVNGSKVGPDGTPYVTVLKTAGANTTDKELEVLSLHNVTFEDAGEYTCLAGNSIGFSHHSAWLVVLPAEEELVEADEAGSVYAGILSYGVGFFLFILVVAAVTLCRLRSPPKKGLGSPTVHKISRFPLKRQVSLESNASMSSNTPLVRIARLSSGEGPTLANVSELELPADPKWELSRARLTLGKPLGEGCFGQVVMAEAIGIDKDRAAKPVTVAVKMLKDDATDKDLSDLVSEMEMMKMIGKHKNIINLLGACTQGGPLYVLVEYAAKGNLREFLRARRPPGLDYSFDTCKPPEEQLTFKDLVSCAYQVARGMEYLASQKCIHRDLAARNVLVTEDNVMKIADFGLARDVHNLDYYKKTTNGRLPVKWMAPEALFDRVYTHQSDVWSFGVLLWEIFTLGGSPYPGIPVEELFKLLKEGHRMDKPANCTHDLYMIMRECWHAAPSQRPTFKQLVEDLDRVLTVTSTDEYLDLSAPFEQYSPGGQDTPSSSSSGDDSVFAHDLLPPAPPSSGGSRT

SMILES	Kd
COc1cc(OC)cc(N(CCCNC(C)C)c2ccc3ncn(C4CCOCC4)c(=O)c3c2)c1 [Compound 73]	1.58e-07 M
COc1cc(OC)cc(N(CCNC(C)C)c2ccc3ncn(-c4cccnc4)c(=O)c3c2)c1 [Compound 34]	1.26e-07 M
COc1cc(OC)c(F)c(N(CCO)c2ccc3ncn(-c4ccncc4)c(=O)c3c2)c1 [Compound 38]	3.16e-08 M
COc1cc(OC)c(F)c(N(CCO)c2ccc3ncn(-c4cncnc4)c(=O)c3c2)c1F [Compound 76]	3.16e-08 M
COc1cc(OC)c(F)c(N(CCO)c2ccc3ncn(-c4cccnc4)c(=O)c3c2)c1 [Compound 30]	6.31e-08 M
COc1cc(OC)c(F)c(N(Cc2ncc[nH]2)c2ccc3ncn(C4CCNCC4)c(=O)c3c2)c1 [Compound 45]	7.94e-08 M
COc1cc(OC)c(F)c(N(Cc2ncc[nH]2)c2ccc3ncn(C4CCNCC4)c(=O)c3c2)c1F [Compound 43]	2e-08 M
CNCCN(c1ccc2ncn(C3CCNCC3)c(=O)c2c1)c1cc(OC)cc(OC)c1F [Compound 58]	6.31e-07 M
COc1cc(OC)cc(/C(=C\C#N)c2ccc3ncn(-c4cnn(C)c4)c(=O)c3c2)c1 [Compound 49]	7.94e-07 M
COc1cc(OC)c(F)c(N(Cc2nccn2S(=O)(=O)N(C)C)c2ccc3ncn(C4CCOCC4)c(=O)c3c2)c1 [Compound 67]	7.94e-07 M
COc1cc(OC)c(F)c(N(CCNC(C)C)c2ccc3ncn(-c4cccnc4)c(=O)c3c2)c1 [Compound 33]	7.94e-09 M
COc1cc(OC)c(F)c(N(CCO)c2ccc3ncn(-c4cccnc4)c(=O)c3c2)c1F [Compound 29]	6.31e-09 M
COc1cc(OC)c(F)c(N(CCO)c2ccc3ncn(C4CCNCC4)c(=O)c3c2)c1 [Compound 48]	7.94e-07 M

Target: T5, FGFR4 (Homo sapiens, UniProt P22455)
T5 construct: purchased DiscoveRx Corporation
Assay: Enzyme binding assay (KINOMEscan) FGFR4
Conditions: pKd = -log Kd (M)
Experimental: as §1, §2

T5 sequence (P22455 22-802): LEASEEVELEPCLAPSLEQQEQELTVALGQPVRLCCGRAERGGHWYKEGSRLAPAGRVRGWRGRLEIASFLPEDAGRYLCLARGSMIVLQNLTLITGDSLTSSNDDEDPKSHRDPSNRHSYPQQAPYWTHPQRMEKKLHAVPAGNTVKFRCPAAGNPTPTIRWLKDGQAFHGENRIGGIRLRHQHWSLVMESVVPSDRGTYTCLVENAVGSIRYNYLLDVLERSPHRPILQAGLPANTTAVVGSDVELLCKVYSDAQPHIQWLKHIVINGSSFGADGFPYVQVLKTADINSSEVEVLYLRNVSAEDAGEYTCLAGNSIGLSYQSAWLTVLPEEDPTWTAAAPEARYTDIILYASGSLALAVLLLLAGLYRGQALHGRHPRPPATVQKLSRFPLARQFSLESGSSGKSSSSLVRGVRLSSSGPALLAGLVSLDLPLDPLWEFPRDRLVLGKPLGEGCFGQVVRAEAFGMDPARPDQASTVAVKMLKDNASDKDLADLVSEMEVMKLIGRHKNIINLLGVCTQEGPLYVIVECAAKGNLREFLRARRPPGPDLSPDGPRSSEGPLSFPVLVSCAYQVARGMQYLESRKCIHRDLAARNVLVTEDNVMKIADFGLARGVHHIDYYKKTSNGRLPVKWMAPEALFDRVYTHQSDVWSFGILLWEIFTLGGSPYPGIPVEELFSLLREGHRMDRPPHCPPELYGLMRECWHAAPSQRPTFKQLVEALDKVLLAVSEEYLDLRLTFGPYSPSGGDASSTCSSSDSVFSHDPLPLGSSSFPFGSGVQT

SMILES	FGFR4_pKd
COc1cc(OC)cc(N(CCCNC(C)C)c2ccc3ncn(C4CCOCC4)c(=O)c3c2)c1 [Compound 73]	5.9

Same assay, conditions: pKd = -log Kd (M), read-out: FGFR4_pKd (converted)

SMILES	Kd
COc1cc(OC)cc(N(CCNC(C)C)c2ccc3ncn(-c4cccnc4)c(=O)c3c2)c1 [Compound 34]	6.31e-07 M
COc1cc(OC)c(F)c(N(CCO)c2ccc3ncn(-c4ccncc4)c(=O)c3c2)c1 [Compound 38]	1.58e-07 M
COc1cc(OC)c(F)c(N(CCO)c2ccc3ncn(-c4cncnc4)c(=O)c3c2)c1F [Compound 76]	2e-07 M
COc1cc(OC)c(F)c(N(CCO)c2ccc3ncn(-c4cccnc4)c(=O)c3c2)c1 [Compound 30]	5.01e-07 M
COc1cc(OC)c(F)c(N(Cc2ncc[nH]2)c2ccc3ncn(C4CCNCC4)c(=O)c3c2)c1 [Compound 45]	5.01e-07 M
COc1cc(OC)c(F)c(N(Cc2ncc[nH]2)c2ccc3ncn(C4CCNCC4)c(=O)c3c2)c1F [Compound 43]	5.01e-08 M
CNCCN(c1ccc2ncn(C3CCNCC3)c(=O)c2c1)c1cc(OC)cc(OC)c1F [Compound 58]	2e-06 M
COc1cc(OC)cc(/C(=C\C#N)c2ccc3ncn(-c4cnn(C)c4)c(=O)c3c2)c1 [Compound 49]	> 3.16e-06 M
COc1cc(OC)c(F)c(N(Cc2nccn2S(=O)(=O)N(C)C)c2ccc3ncn(C4CCOCC4)c(=O)c3c2)c1 [Compound 67]	> 3.16e-06 M
COc1cc(OC)c(F)c(N(CCNC(C)C)c2ccc3ncn(-c4cccnc4)c(=O)c3c2)c1 [Compound 33]	2.51e-08 M
COc1cc(OC)c(F)c(N(CCO)c2ccc3ncn(-c4cccnc4)c(=O)c3c2)c1F [Compound 29]	5.01e-08 M
COc1cc(OC)c(F)c(N(CCO)c2ccc3ncn(C4CCNCC4)c(=O)c3c2)c1 [Compound 48]	> 3.16e-06 M
